We go through 20 molecules from EP0215300A2, “Use of diazaphosphorines for combating endoparasites” (BAYER AG, priority 1985, dated 1987).

One test relates to Caenorhabditis elegans. The test is described as follows: In vitro nematode test (inhibition of reproduction). The test is classed as cell-based. The conditions noted are these: 168 h; concentration at which reproduction is prevented; 7 days at 22°C; E.coli suspension in M9 buffer; read-out: Minimale effektive Dosis. As for the experimental part:
10-^4 g Wirkstoff werden in 1 ml Wasser oder 0,1 ml Dimethylsulfoxid (DMSO) gelöst. Diese Lösung wurde auf eine Replica-Platte gegeben. Dazu wurden 2 ml einer E.coli-Suspension gegeben, zu der man 10-20 weibliche Tiere oder Larven von Caenorhabditis elegans in 0,5 ml sterile M9 Pufferlösung gegeben hat. Die E.coli-Suspension wurde hergestellt indem man 300 ml einer Ubernachtkultur eines Uracil-bedürftigen E.coli-Stammes mit 1,8 1 steriler M9 Pufferlösung versetzte.
Der Versuchsansatz wurde 7 Tage bei 22°C inkubiert und danach ausgewertet. Es wurde bewertet inwieweit der Wirkstoff die Vermehrung beeinträchtigt und die Konzentration angegeben bei der die Vermehrung verhindert wird. Dabei wurden folgende Ergebnisse erhalten: • In vitro Nematodentest

The test system of another test is Strongyloides ratti. Description: In vivo nematode test in experimentally infected rats. The note with it: rats (Ratten), oral by gavage on three consecutive days from day 7 after infection, killed day 13, at least 95 % of parasites killed, read-out: minimale effektive Dosis. From the text:
Experimentell mit Strongyloides ratti infizierte Ratten werden 7 Tage nach der Infektion an drei aufeinanderfolgenden Tagen oral mittels Schlundsonde behandelt. Die Tiere werden 13 Tage nach der Infektion getötet und die Zahl der Parasiten bestimmt. Es wird die Wirkstoffkonzentration angegeben, bei der mindestens 95 % der Parasiten abgetötet wurden (minimale effektive Dosis): […]

For another test, the system named is Heterakis spumora. The test is described as follows: In vivo nematode test in experimentally infected mice. The note with it: Mus musculus; mice (Mäuse); oral by gavage on four consecutive days from day 32 after infection; killed day 39; at least 95 % of parasites killed; read-out: minimale effektive Dosis. An excerpt: Experimentell mit Heterakis spumora infizierte Mäuse werden 32 Tage nach der Infektion an vier aufeinanderfolgenden Tagen oral mittels Schlundsonde behandelt. Die Tiere werden 39 Tage nach der Infektion getötet und die Zahl der Parasiten bestimmt. Es wird die Wirkstoffkonzentration angegeben bei der mindestens 95 % der Parasiten abgetötet wurden (minimale effektive Dosis): […]

A further test relates to Hymenolepis nana. The test is described as above. The conditions noted are these: Rodentolepis nana; mice (Mäuse); oral by gavage on four consecutive days from day 10 after infection; killed day 17; at least 95 % of parasites killed; read-out: minimale effektive Dosis. From the text:
Experimeltell mit Hymenolepis nana infizierte Mäuse werden 10 Tage nach der Infektion an vier aufeinanderfolgenden Tagen oral mittels Schlundsonde behandelt. Die Tiere werden 17 Tage nach Infektion getötet und die Zahl der Parasiten bestimmt. Es wird die Wirkstoffkonzentration angegeben, bei der mindestens 95 % der Parasiten abgetötet wurden (minimale effektive Dosis): […]

With `CN1C(=O)C(C(=O)Nc2ccc(C(F)(F)F)cc2)C(=O)N(C)P1(=O)Oc1ccc(Cl)cc1` (stereo not shown) [Beispiel 6], the minimal effective concentration with Caenorhabditis elegans stood at 1 µg/mL.
For the molecule `CN1C(=O)C(C(=O)Nc2cccc(Cl)c2)C(=O)N(C)P1(=O)Oc1cccc(Cl)c1` (stereo not shown) [Beispiel 11], the minimal effective concentration with Caenorhabditis elegans was 1 µg/mL. In the test with Strongyloides ratti, the minimal effective dose was 10 mg/kg.
As to `CC(C)N1C(=O)C(C(=O)Nc2cccc(Cl)c2)C(=O)N(C(C)C)P1(=O)Oc1cccc(Cl)c1` (stereo not shown) [Beispiel 2], the minimal effective concentration in the test on Caenorhabditis elegans was 100 µg/mL.
With `Cc1cccc(OP2(=O)N(C)C(=O)C(C(=O)Nc3cccc(Cl)c3)C(=O)N2C(C)C)c1` (stereo not shown) [Beispiel 28], in the test on Caenorhabditis elegans, the minimal effective concentration is 100 µg/mL.
`O=C(Nc1ccc(Cl)c(Cl)c1)C1C(=O)N(c2ccccc2)P(=O)(Oc2ccccc2)N(c2ccccc2)C1=O` (stereo not shown) [Beispiel 14]: the minimal effective concentration with Caenorhabditis elegans was 100 µg/mL.
On the same count and under the same terms, the value for `Cc1cccc(OP2(=O)N(C)C(=O)C(C(=O)Nc3ccc(Cl)c(Cl)c3)C(=O)N2C(C)C)c1` (stereo not shown) [Beispiel 35] was 10 µg/mL; that for `CN1C(=O)C(C(=O)Nc2ccc(Cl)cc2)C(=O)N(C)P1(=O)Oc1ccc(Cl)cc1` (stereo not shown) [Beispiel 10] was 1 µg/mL.
On the same count and under the same terms, the value for `CC(C)N1C(=O)C(C(=O)Nc2cccc(C(F)(F)F)c2)C(=O)N(C(C)C)P1(=O)Oc1cccc(Cl)c1` (stereo not shown) [Beispiel 3] was 100 µg/mL.
On the same count and under the same terms, the value for `Cc1cccc(OP2(=O)N(C)C(=O)C(C(=O)Nc3cccc(C(F)(F)F)c3)C(=O)N2C(C)C)c1` (stereo not shown) [Beispiel 27] was 10 µg/mL; that for `Cc1cccc(OP2(=O)NC(=O)C(C(=O)Nc3cccc(C(F)(F)F)c3)C(=O)N2C)c1` (stereo not shown) [Beispiel 34] was 100 µg/mL.
With `CN1C(=O)C(C(=O)Nc2cccc(C(F)(F)F)c2)C(=O)N(C)P1(=O)Oc1ccc(Cl)cc1` (stereo not shown) [Beispiel 1], the minimal effective concentration in the test with Caenorhabditis elegans turned out to be 10 µg/mL.
For the molecule `CC(C)N1C(=O)C(C(=O)Nc2cccc(Cl)c2)C(=O)N(C)P1(=O)Oc1cccc(Cl)c1` (stereo not shown) [Beispiel 18], the minimal effective concentration in the test on Caenorhabditis elegans was 10 µg/mL.
The same measure, in the same setting: the value for `CC(C)N1C(=O)C(C(=O)Nc2ccc(C(F)(F)F)cc2)C(=O)N(C)P1(=O)Oc1cccc(Cl)c1` (stereo not shown) [Beispiel 17] was 10 µg/mL.
On the same count and under the same terms, the value for `CN1C(=O)C(C(=O)Nc2cccc(Cl)c2)C(=O)N(C)P1(=O)Oc1ccc(Cl)cc1` (stereo not shown) [Beispiel 12] was 100 µg/mL; that for `CN1C(=O)C(C(=O)Nc2ccc(Cl)c(Cl)c2)C(=O)N(c2ccccc2)P1(=O)Oc1ccc(Cl)cc1` (stereo not shown) [Beispiel 37] was 10 µg/mL.
As for `CN1C(=O)C(C(=O)Nc2cccc(C(F)(F)F)c2)C(=O)N(C)P1(=O)Oc1cccc(Cl)c1` (stereo not shown) [Beispiel 36], in the test with Caenorhabditis elegans, the minimal effective concentration was 10 µg/mL.
Regarding `CC(C)N1C(=O)C(C(=O)Nc2cccc(C(F)(F)F)c2)C(=O)N(C)P1(=O)Oc1cccc(Cl)c1` (stereo not shown) [Beispiel 22], the minimal effective concentration in the test on Caenorhabditis elegans was determined as 10 µg/mL. The minimal effective dose in the test on Heterakis spumora and with Hymenolepis nana was 250 mg/kg throughout.
`CN1C(=O)C(C(=O)Nc2ccc(C(F)(F)F)cc2)C(=O)N(C)P1(=O)Oc1ccccc1` (stereo not shown) [Beispiel 8]: the minimal effective concentration in the test with Caenorhabditis elegans amounted to 10 µg/mL. In the test on Strongyloides ratti, the minimal effective dose is 25 mg/kg.
Take `CCN1C(=O)C(C(=O)Nc2cccc(C(F)(F)F)c2)C(=O)N(C)P1(=O)Oc1cccc(Cl)c1` (stereo not shown) [Beispiel 20]: the minimal effective concentration with Caenorhabditis elegans turned out to be 10 µg/mL. Moreover, in the test with Strongyloides ratti, the minimal effective dose amounted to 250 mg/kg.
Consider `O=C(Nc1ccc(Cl)c(Cl)c1)C1C(=O)N(c2ccccc2)P(=O)(Oc2ccc(Cl)cc2)N(c2ccccc2)C1=O` (stereo not shown) [Beispiel 13], for which the minimal effective concentration in the test with Caenorhabditis elegans turned out to be 10 µg/mL.
